Data as given in patent US10221129B2, “Inhibitors of human immunodeficiency virus replication” (ViiV HEALTHCARE UK (NO.5) LIMITED, priority 2015, dated 2019).

Legend:
[1] = tested on: recombinant NL4-3 virus (nef section replaced with Renilla luciferase gene) in MT-2 cells; experiment: HIV cell culture assay (antiviral activity, luciferase readout); type: cell-based; conditions: Renilla, NL43, MT-2 cells infected for 4-5 days with recombinant NL4-3 Renilla luciferase virus
Outline: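 Serial compound dilutions tested in MT-2 cells infected for 4-5 days with 293T-derived NL4-3 virus carrying Renilla luciferase in place of part of nef. Antiviral activity quantified as luciferase activity, read with a live-cell substrate.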

[2] = Compound cytotoxicity, XTT-based colorimetric assay; type: cell-based; conditions: human, uninfected MT2 cells, day 4, XTT
Outline: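 Run under the antiviral-assay protocol but without virus. Viability was read on day 4 and CC50 values were derived from the readout.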

Compound	EC50 [1] [nM]	CC50 at 4 days [2] [nM]
CN(C(=O)[C@H](Cc1cc(F)cc(F)c1)NC(=O)NS(=O)(=O)n1ncc2cc(F)ccc21)c1ccc2scnc2c1 [ZY-20]	4190	> 100000
CC(C)Oc1ccc(N(C)C(=O)[C@H](Cc2cc(F)cc(F)c2)NC(=O)NS(=O)(=O)N2CCc3cccnc32)cn1 [BB-12]	20	94900
CC(=O)N1CCN(S(=O)(=O)NC(=O)N[C@@H](Cc2cc(F)cc(F)c2)C(=O)N(C)c2ccc3scnc3c2)CC1 [CA-148]	10300	> 100000
COc1ccc(N(C)C(=O)[C@H](Cc2ccccc2)NC(=O)NS(=O)(=O)NCc2cccc(-n3cccn3)c2)cc1 [JB-47]	3410	> 100000
CCc1ccc(N(C)C(=O)[C@H](Cc2cc(F)cc(F)c2)NC(=O)NS(=O)(=O)N2CCc3cccnc32)cc1 [BB-2]	20	96000
COc1ccc(N(C)C(=O)[C@H](Cc2ccccc2)NC(=O)NS(=O)(=O)Nc2cc(F)ccc2F)cc1 [JB-48]	170	> 100000
CN(C(=O)[C@H](Cc1cc(F)cc(F)c1)NC(=O)NS(=O)(=O)N1CCc2cccnc21)c1ccc(N2CCOCC2)cc1 [BB-3]	340	68100
CN(C)C(=O)[C@H]1CCCN1S(=O)(=O)NC(=O)N[C@@H](Cc1cc(F)cc(F)c1)C(=O)N(C)c1ccc2scnc2c1 [BB-26]	310	> 100000
COc1ccc(N(C)C(=O)[C@H](Cc2ccccc2)NC(=O)NS(=O)(=O)NCc2ccccn2)cc1 [JB-39]	1380	> 100000
CN1CCN(S(=O)(=O)NC(=O)N[C@@H](Cc2cc(F)cc(F)c2)C(=O)N(C)c2ccc3scnc3c2)CC1 [CA-122]	280	> 33300
CN(C(=O)[C@H](Cc1cc(F)cc(F)c1)NC(=O)NS(=O)(=O)N1CCOc2cccnc21)c1ccc2scnc2c1 [AW-1]	110	> 100000
CN(C(=O)[C@H](Cc1cc(F)cc(F)c1)NC(=O)NS(=O)(=O)N1CCCCC1)c1ccc2scnc2c1 [VN-24]	90	> 100000
COc1ccc(N(C)C(=O)[C@H](Cc2ccccc2)NC(=O)NS(=O)(=O)Nc2ccc3ncsc3c2)cc1 [CA-24]	60	> 100000
CN(C(=O)[C@H](Cc1cc(F)cc(F)c1)NC(=O)NS(=O)(=O)N(C)Cc1ccccc1)c1ccc2scnc2c1 [CA-139]	220	> 100000
COc1ccc(N(C)C(=O)[C@H](Cc2ccccc2)NC(=O)NS(=O)(=O)N2CCc3cc(C)ccc32)cc1 [CA-2]	140	> 33300
COc1ccc(N(C)C(=O)[C@H](Cc2ccccc2)NC(=O)NS(=O)(=O)Nc2ccc(C(C)(C)C)cc2)cc1 [CA-20]	40	> 100000
CN(C(=O)[C@H](Cc1cc(F)cc(F)c1)NC(=O)NS(=O)(=O)N1CCc2ccccc2C1)c1ccc2scnc2c1 [CA-157]	880	99700
COc1ccc(N(C)C(=O)[C@H](Cc2ccccc2)NC(=O)NS(=O)(=O)n2c(C)cc3ccncc32)cc1 [CA-62]	3690	> 100000
CCN(c1ccccc1)S(=O)(=O)NC(=O)N[C@@H](Cc1cc(F)cc(F)c1)C(=O)N(C)c1ccc2scnc2c1 [ZY-9]	180	> 100000
COc1ccc(N(C)C(=O)[C@H](Cc2ccccc2)NC(=O)NS(=O)(=O)n2ncc3c(Cl)nc(Cl)cc32)cc1 [CA-66]	14600	> 100000

Compound	EC50 [1] [nM]	CC50 at 4 days [2] [nM]
COc1ccc(N(C)C(=O)[C@H](Cc2ccccc2)NC(=O)NS(=O)(=O)Nc2ccc(F)c(F)c2)cc1 [JB-51]	110	> 100000
COc1ccc(N(C)C(=O)[C@H](Cc2ccccc2)NC(=O)NS(=O)(=O)Nc2ccccc2)cc1 [JB-4]	140	> 100000
COc1ccc(N(C)C(=O)[C@H](Cc2ccccc2)NC(=O)NS(=O)(=O)Nc2ccc(OCc3ccccc3)cc2)cc1 [CA-32]	980	> 33300
COc1ccc(N(C)C(=O)[C@H](Cc2ccccc2)NC(=O)NS(=O)(=O)N(C)CC(=O)N(C)C)cc1 [JB-30]	1950	> 100000
COc1ccc(N(C)C(=O)[C@H](Cc2ccccc2)NC(=O)NS(=O)(=O)Nc2cccc3ncccc23)cc1 [CA-8]	590	> 100000
COc1ccc(N(C)C(=O)[C@H](Cc2ccccc2)NC(=O)NS(=O)(=O)Nc2cccc(Cl)c2)cc1 [JB-19]	50	> 100000
CN(C(=O)[C@H](Cc1cc(F)cc(F)c1)NC(=O)NS(=O)(=O)N1CCc2cccnc21)c1cnc2scnc2c1 [GW-16]	280	> 100000
CN(C(=O)[C@H](Cc1cc(F)cc(F)c1)NC(=O)NS(=O)(=O)N1CCc2cccnc21)c1ccc(C(F)F)nc1 [GW-12]	120	> 100000
CCc1ccc(CN(C)S(=O)(=O)NC(=O)N[C@@H](Cc2ccccc2)C(=O)N(C)c2ccc(OC)cc2)cc1 [JB-41]	5060	> 33300
Cc1ccc(N(C)C(=O)[C@H](Cc2cc(F)cc(F)c2)NC(=O)NS(=O)(=O)N2CCc3cncnc32)cc1F [BB-14]	20	93100
COc1ccc(N(C)C(=O)[C@H](Cc2ccccc2)NC(=O)NS(=O)(=O)Nc2cccc(C#N)c2)cc1 [CA-9]	260	> 100000
CN(C(=O)[C@H](Cc1cc(F)cc(F)c1)NC(=O)NS(=O)(=O)NCc1ccccc1)c1ccc2scnc2c1 [CA-126]	520	> 100000
COc1ccc(N(C)C(=O)[C@H](Cc2ccccc2)NC(=O)NS(=O)(=O)n2c3ccccc3c3ccccc32)cc1 [JB-9]	440	74200
CN(C(=O)[C@H](Cc1cc(F)cc(F)c1)NC(=O)NS(=O)(=O)NC1CCC1)c1ccc2scnc2c1 [CA-132]	50	> 100000
CN(C(=O)[C@H](Cc1cc(F)cc(F)c1)NC(=O)NS(=O)(=O)N1CCc2nccnc21)c1ccc2scnc2c1 [ZY-22]	520	> 100000
COc1ccc(N(C)C(=O)[C@H](Cc2ccccc2)NC(=O)NS(=O)(=O)NC(C)c2cnn(C)c2C)cc1 (some centres unmarked) [JB-60]	270	> 100000
COc1ccc(N(C)C(=O)[C@H](Cc2ccccc2)NC(=O)NS(=O)(=O)NCc2cncn2C)cc1 [JB-55]	14800	> 100000
COc1ccc(N(C)C(=O)[C@H](Cc2ccccc2)NC(=O)NS(=O)(=O)Nc2ccc3c(c2)CS(=O)(=O)C3)cc1 [CA-48]	260	> 100000
CN(C(=O)[C@H](Cc1cc(F)cc(F)c1)NC(=O)NS(=O)(=O)N(C)C)c1ccc(OC(F)F)cc1 [BB-37]	100	> 100000
COc1ccc(N(C)C(=O)[C@H](Cc2ccccc2)NC(=O)NS(=O)(=O)N(C)c2ccccc2)cc1 [JB-3]	130	> 100000

Compound	EC50 [1] [nM]	CC50 at 4 days [2] [nM]
CN(C(=O)[C@H](Cc1cc(F)cc(F)c1)NC(=O)NS(=O)(=O)N1CCc2cccnc21)c1ccc2c(c1)ncn2C [GW-6]	630	> 25000
CN(C(=O)[C@H](Cc1cc(F)cc(F)c1)NC(=O)NS(=O)(=O)Nc1cccnc1)c1ccc2scnc2c1 [CA-123]	160	> 100000
CCOc1ccc(NS(=O)(=O)NC(=O)N[C@@H](Cc2ccccc2)C(=O)N(C)c2ccc(OC)cc2)cc1 [JB-81]	260	> 100000
COc1ccc(N(C)C(=O)[C@H](Cc2ccccc2)NC(=O)NS(=O)(=O)NCc2cccc(F)c2)cc1 [JB-57]	6430	> 100000
COc1ccc(N(C)C(=O)[C@H](Cc2ccccc2)NC(=O)NS(=O)(=O)N(C)C)cc1 [JB-15]	1920	> 100000
CCc1ccc(N(C)C(=O)[C@H](Cc2cc(F)cc(F)c2)NC(=O)NS(=O)(=O)N2CCc3cccnc32)cn1 [GW-3]	20	> 100000
Cc1ncc(N(C)C(=O)[C@H](Cc2cc(F)cc(F)c2)NC(=O)NS(=O)(=O)N2CCc3cccnc32)cn1 [GW-14]	1610	> 100000
COc1ccc(N(C)C(=O)[C@H](Cc2ccccc2)NC(=O)NS(=O)(=O)Nc2cc(Cl)cc(Cl)c2)cc1 [CA-49]	180	> 33300
CC(C)N(C)S(=O)(=O)NC(=O)N[C@@H](Cc1cc(F)cc(F)c1)C(=O)N(C)c1ccc2scnc2c1 [CA-147]	80	> 100000
COc1ccc(N(C)C(=O)[C@H](Cc2ccccc2)NC(=O)NS(=O)(=O)Nc2ccc(-c3ccccc3)cc2)cc1 [CA-29]	3260	> 33300
COc1ccc(N(C)C(=O)[C@H](Cc2ccccc2)NC(=O)NS(=O)(=O)NCCc2ccccc2)cc1 [JB-33]	680	> 100000
CN(C(=O)[C@H](Cc1cc(F)cc(F)c1)NC(=O)NS(=O)(=O)N1CCc2cccc(F)c21)c1ccc2scnc2c1 [ZY-15]	30	> 33300
CN(C(=O)[C@H](Cc1ccccc1)NC(=O)NS(=O)(=O)N(C)c1ccccc1Cl)c1ccc2ncccc2c1 [JB-11]	40	> 100000
Cc1cc(N(C)C(=O)[C@H](Cc2cc(F)cc(F)c2)NC(=O)NS(=O)(=O)N2CCc3cccnc32)ccc1Cl [BB-16]	30	56300
COc1ccc(N(C)C(=O)[C@H](Cc2ccccc2)NC(=O)NS(=O)(=O)Nc2cccc(C(C)(C)C)c2)cc1 [CA-41]	260	> 33300
COc1ccc(N(C)C(=O)[C@H](Cc2ccccc2)NC(=O)NS(=O)(=O)Nc2ncccn2)cc1 [JB-29]	1600	> 100000
COc1ccc(N(C)C(=O)[C@H](Cc2ccccc2)NC(=O)NS(=O)(=O)NCc2ccccc2F)cc1 [JB-38]	1600	> 100000
CCOc1ccc(N(CC)C(=O)[C@H](Cc2ccccc2)NC(=O)NS(=O)(=O)N2CCc3cc(C)ccc32)cc1 [JB-70]	100	> 33300
